Values joined by “and” are separate entries in the source; they are usually repeats but may differ in a detail not shown here. Equal values may be shown once.
Key:
U87MG tumor xenografts = assay: Biodistribution (ex vivo γ-counting of organs) in U87MG tumor xenograft mice; design: species or system nude mice (female BALB/c nu/nu); details: for Tumor uptake: i.v., mean ± SD, n = 3
Protocol: (§1) All animal experimental procedures and protocols were approved by the Institutional Animal Care and Use Committee (Renji Hospital, School of Medicine, Shanghai Jiao Tong University). For subcutaneous models, U87MG cells (2 × 10^6 cells in 100 μl PBS) were implanted into the right flank of female BALB/c nu/nu athymic mice to establish subcutaneous tumor xenografts. For orthotopic xenografts, U87MG cells (0.5 × 10^6 cells in […] PBS) were transplanted into the brains of female BALB/c nude mice (4–6 weeks old). The subcutaneous and orthotopic models were ready for PET imaging 3 weeks after tumor cell inoculation.
U87MG mice were injected with 3.7 MBq of each tracer and sacrificed at different times (30, 60, and 90 min p.i.; n = 3 for each time point). The main organs, including the kidney, intestine, liver, heart, lung, muscle, brain, and tumors, were isolated, weighed, and analyzed. The biodistribution in the [^68Ga] Ga-DOTA-FAPI-04 group (3.7 MBq) with approximately 100 μg of unlabeled DOTA-FAPI-04 was also evaluated for comparison. The radioactivity of the samples was determined using an automated γ-counter (Perkin-Elmer), and the uptake of the radiotracers in different organs/tissues was calculated and presented as percent of injected dose per Gram of tissue (%ID/g, mean ± SD).

[1] = In vitro stability in PBS at 37°C (radio-HPLC); assay type: physicochemical; details: 150 min
Protocol: The radiochemical purities were analyzed by a radio-HPLC column (C18-B, 250 mm × 4.6 mm, 5 μm, 120 Å, Morhchem Technologies Inc., United States) (details presented in the Supplementary Material).

[2] = system: U87MG orthotopic xenograft glioma; assay: Small-animal PET in the U87MG orthotopic xenograft glioma model; assay type: in vivo, nude mice (female BALB/c); details: 60 min p.i., n = 3
Protocol: as §1
Ga-DOTA-FAPI-04 were diluted or concentrated to a 74 MBq/mL. […] Ga-DOTA-FAPI-04 was intravenously injected into U87MG tumor-bearing nude mice (n = 3 for each group). For static PET imaging, the acquisition times were 30, 60, and 90 min postinjection (p.i.). Each static scan consists of CT scan and PET scan. The CT scan time is 20 s and the PET scan time is 10 min. […] Regions of interest (ROIs) in the tumor, liver, heart, kidney, brain, and lung were counted on the PET images to quantify the radioactive signals. […] PET data were reconstructed with three-dimensional ordered-subset expectation-maximization (3D-OSEM) algorithm with Monte-Carlo based accurate detector model and subsequently was analyzed with Avatar 1.2 software (Pingseng China).

FAP = system: FAP; design: method as in PMID 32222810; details: ref (3); cited from earlier work
[3] = 60 min p.i. (time taken from the order of the sentence)
[4] = 90 min p.i. (time taken from the order of the sentence)
[5] = time printed as 'at 60 and 90 min p.i.', one value per probe

Row | Compound | Brain uptake (U87MG tumor xenografts; 30 min p.i.) [%ID/g] | Heart uptake (U87MG tumor xenografts; 30 min p.i.) [%ID/g] | Intestine uptake (U87MG tumor xenografts; 30 min p.i.) [%ID/g] | Kidney uptake (U87MG tumor xenografts; 30 min p.i.) [%ID/g] | Liver uptake (U87MG tumor xenografts; 30 min p.i.) [%ID/g] | Lung uptake (U87MG tumor xenografts; 30 min p.i.) [%ID/g] | Muscle uptake (U87MG tumor xenografts; 30 min p.i.) [%ID/g] | T/L ratio (tumor/liver) (U87MG tumor xenografts; 30 min p.i.) | tumor-to-muscle (T/M) ratio (U87MG tumor xenografts; 30 min p.i.) | Tumor uptake (U87MG tumor xenografts; 30 min p.i.) [%ID/g] | Brain uptake (U87MG tumor xenografts; 60 min p.i.) [%ID/g] | Heart uptake (U87MG tumor xenografts; 60 min p.i.) [%ID/g] | Intestine uptake (U87MG tumor xenografts; 60 min p.i.) [%ID/g] | Kidney uptake (U87MG tumor xenografts; 60 min p.i.) [%ID/g] | Liver uptake (U87MG tumor xenografts; 60 min p.i.) [%ID/g] | Lung uptake (U87MG tumor xenografts; 60 min p.i.) [%ID/g] | Muscle uptake (U87MG tumor xenografts; 60 min p.i.) [%ID/g] | T/L ratio (tumor/liver) (U87MG tumor xenografts; 60 min p.i.) | tumor-to-muscle (T/M) ratio (U87MG tumor xenografts; 60 min p.i.) | T/K ratio (tumor/kidney) (U87MG tumor xenografts; [3]) | other results
1 | COc1ccc2nccc(C(=O)NCC(=O)N3CCC[C@H]3C#N)c2c1 [^11C-RJ1101, (S)-N-(2-(2-cyanopyrrolidin-1-yl)-2-oxoethyl)-6-(methoxy-11C)quinoline-4-carboxamide] | 0.18 ± 0.02 | 0.59 ± 0.01 | 4.95 ± 0.31 | 1.28 ± 0.06 | 7.20 ± 1.71 | 0.56 ± 0.08 | 0.42 ± 0.04 | 0.19 ± 0.03 | 3.19 ± 0.06 | 1.34 ± 0.10 | 0.02 ± 0.00 | 0.06 ± 0.01 | 2.72 ± 0.45 | 0.17 ± 0.02 | 0.24 ± 0.03 | 0.05 ± 0.01 | 0.06 ± 0.01 | 0.63 ± 0.04 | 2.26 ± 0.25 | 0.89 ± 0.05 | Tumor uptake (U87MG tumor xenografts; 60 min p.i.): 0.15 ± 0.01 %ID/g; Heart uptake (U87MG tumor xenografts; 90 min p.i.): 0.01 ± 0.00 %ID/g; Intestine uptake (U87MG tumor xenografts; 90 min p.i.): 0.67 ± 0.02 %ID/g; Kidney uptake (U87MG tumor xenografts; 90 min p.i.): 0.03 ± 0.00 %ID/g; Liver uptake (U87MG tumor xenografts; 90 min p.i.): 0.06 ± 0.00 %ID/g; Lung uptake (U87MG tumor xenografts; 90 min p.i.): 0.01 ± 0.00 %ID/g; Muscle uptake (U87MG tumor xenografts; 90 min p.i.): 0.01 ± 0.00 %ID/g; T/L ratio (tumor/liver) (U87MG tumor xenografts; 90 min p.i.): 0.34 ± 0.06; tumor-to-muscle (T/M) ratio (U87MG tumor xenografts; 90 min p.i.): 2.00 ± 0.00; T/K ratio (tumor/kidney) (U87MG tumor xenografts; [4]): 0.67 ± 0.01; Tumor uptake (U87MG tumor xenografts; 90 min p.i.): 0.02 ± 0.00 %ID/g; T/K ratio (tumor/kidney) (U87MG tumor xenografts; [5]): 1.05 ± 0.03; radioactive purity after incubation in PBS (in vitro stability) [1]: over 99%
2 | [11CH3]Oc1ccc2nccc(C(=O)NCC(=O)N3CC(F)(F)C[C@H]3C#N)c2c1 [^11C-RJ1102, (S)-N-(2-(2-cyano-4,4-difluoropyrrolidin-1-yl)-2-oxoethyl)-6-(methoxy-11C) quinoline-4-carboxamide] | 0.16 ± 0.01 | 0.78 ± 0.10 | 5.08 ± 0.24 | 1.84 ± 0.01 | 2.87 ± 0.12 | 0.65 ± 0.02 | 0.74 ± 0.03 | 0.60 ± 0.03 | 2.30 ± 0.32 and 2.30 ± 0.02 | 1.71 ± 0.08 | 0.07 ± 0.03 | 0.26 ± 0.01 | 2.63 ± 0.28 | 0.48 ± 0.02 | 1.00 ± 0.05 | 0.25 ± 0.03 | 0.20 ± 0.01 | 0.62 ± 0.03 | 3.10 ± 0.14 | 1.29 ± 0.07 | Tumor uptake (U87MG tumor xenografts; 60 min p.i.): 0.62 ± 0.06 %ID/g; Brain uptake (U87MG tumor xenografts; 90 min p.i.): 0.02 ± 0.01 %ID/g; Heart uptake (U87MG tumor xenografts; 90 min p.i.): 0.07 ± 0.01 %ID/g; Intestine uptake (U87MG tumor xenografts; 90 min p.i.): 1.10 ± 0.25 %ID/g; Kidney uptake (U87MG tumor xenografts; 90 min p.i.): 0.13 ± 0.02 %ID/g; Liver uptake (U87MG tumor xenografts; 90 min p.i.): 0.29 ± 0.02 %ID/g; Lung uptake (U87MG tumor xenografts; 90 min p.i.): 0.06 ± 0.01 %ID/g; Muscle uptake (U87MG tumor xenografts; 90 min p.i.): 0.04 ± 0.00 %ID/g; T/L ratio (tumor/liver) (U87MG tumor xenografts; 90 min p.i.): 0.62 ± 0.03; tumor-to-muscle (T/M) ratio (U87MG tumor xenografts; 90 min p.i.): 4.50 ± 0.50; T/K ratio (tumor/kidney) (U87MG tumor xenografts; [4]): 1.39 ± 0.06; Tumor uptake (U87MG tumor xenografts; 90 min p.i.): 0.18 ± 0.02 %ID/g; T/K ratio (tumor/kidney) (U87MG tumor xenografts; [5]): 0.93 ± 0.04; tumor accumulation (small-animal PET) [2]: 0.22 ± 0.02 ID%/g; radioactive purity after incubation in PBS (in vitro stability) [1]: over 99%
3 | COc1ccc2nccc(C(=O)NCC(=O)N3CC(F)(F)C[C@H]3C#N)c2c1 [compound 4, (S)-N-(2-(2-cyano-4,4-difluoropyrrolidin-1-yl)-2-oxoethyl)-6-(methoxy)quinoline-4-carboxamide] |  |  |  |  |  |  |  |  |  |  |  |  |  |  |  |  |  |  |  |  | IC50 (FAP): 8.5 ± 0.9 nM

From paper PMC9388731, “Radiosynthesis and First Preclinical Evaluation of the Novel ^11C-Labeled FAP Inhibitor ^11C-FAPI: A Comparative Study of ^11C-FAPIs and (^68Ga) Ga-DOTA-FAPI-04 in a High–FAP-Expression Mouse Model” (Frontiers in Chemistry, 2022)
